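Where inhibition never reached the appropriate level, the endpoint shown equals the highest concentration tested. Otherwise, values were interpolated linearly from a five-concentration, 48-hour dose response in 96-well plates. GI50 = concentration required for 50% inhibition of growth. TGI: total growth inhibition.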
Tests used:
Assay in all cases: NCI tumour cell line growth inhibition, 48 h
[1] = system: UACC-257 melanoma
[2] = system: OVCAR-3 ovarian
[3] = system: HS 578T breast
[4] = system: TK-10 renal
[5] = system: BT-549 breast
[6] = system: SN12C renal
[7] = system: 786-0 renal
[8] = system: RXF 393 renal

Work on `CC1=CC(C)(C)Nc2ccc(Cc3ccc4c(c3)C(C)=CC(C)(C)N4)cc21` yielded a GI50 [1] of 7.06 µM, a TGI [1] of 72.1 µM and a GI50 [2] of 6.4 µM. It also gave a TGI [2] of 21.3 µM, a GI50 [3] of 8.14 µM and a TGI [3] of 47.4 µM. The GI50 [4] was 16.8 µM, the TGI [4] was 92.8 µM and the GI50 [5] was 28.4 µM. The TGI [5] was > 100 µM, the GI50 [6] was 11.2 µM and the TGI [6] was > 100 µM. For the same molecule, the GI50 [7] was 26 µM, the TGI [7] was > 100 µM and the GI50 [8] was 22 µM. It also gave a TGI [8] of 88.7 µM.

Work on `C[C@H]1COCCN1c1nc(-c2cnc(N)cc2C(F)F)nc(N2CCOCC2)n1` yielded a GI50 [1] of 0.166 µM, a TGI [1] of 1.58 µM and a GI50 [2] of 0.224 µM. The TGI [2] was > 100 µM, the GI50 [3] was 0.1 µM and the TGI [3] was 0.551 µM. The GI50 [4] was 0.0866 µM, the TGI [4] was 0.815 µM and the GI50 [5] was 0.098 µM. For the same molecule, the TGI [5] was 0.818 µM, the GI50 [6] was 0.159 µM and the TGI [6] was > 100 µM. The GI50 [7] was 0.181 µM, the TGI [7] was 5.15 µM and the GI50 [8] was 0.129 µM. It also gave a TGI [8] of 0.617 µM.

`COc1cc2c3c(n(CCN4CCOCC4)c(=O)c2cc1OC)-c1ccccc1C3=O` was tested, and the GI50 [1] was > 100 µM, the TGI [1] was > 100 µM and the GI50 [2] was > 100 µM. For the same molecule, the TGI [2] was > 100 µM, the GI50 [3] was > 100 µM and the TGI [3] was > 100 µM. The GI50 [4] was > 100 µM, the TGI [4] was > 100 µM and the GI50 [5] was > 100 µM. The TGI [5] was > 100 µM, the GI50 [6] was > 100 µM and the TGI [6] was > 100 µM. The GI50 [7] was 88.9 µM, the TGI [7] was > 100 µM and the GI50 [8] was > 100 µM. The TGI [8] was > 100 µM.

Molecule `c1cc(C2CCCCC2)ccc1-c1cnc2nonc2n1` has a GI50 [1] of 1.28 µM, a TGI [1] of 3.9 µM and a GI50 [2] of 0.557 µM. The TGI [2] was 1.97 µM, the GI50 [3] was 1.02 µM and the TGI [3] was > 58.3 µM. It also gave a GI50 [4] of 1.28 µM, a TGI [4] of 2.79 µM and a GI50 [5] of 1.29 µM. It also gave a TGI [5] of 3.25 µM, a GI50 [6] of 1.1 µM and a TGI [6] of 3.21 µM. It also gave a GI50 [7] of 0.506 µM, a TGI [7] of 1.9 µM and a GI50 [8] of 0.514 µM. For the same molecule, the TGI [8] was 1.56 µM.

With `COc1c(B(O)O)cccc1-c1nc2ccc3[nH]ncc3c2c2c1CCCC2` the GI50 [1] was 2.88 µM, the TGI [1] was 24.6 µM and the GI50 [2] was 3.43 µM. It also gave a TGI [2] of 12.3 µM, a GI50 [3] of 0.0622 µM and a TGI [3] of 7.92 µM. It also gave a GI50 [4] of 0.0448 µM, a TGI [4] of 16.4 µM and a GI50 [5] of 0.122 µM. It also gave a TGI [5] of 2.56 µM, a GI50 [6] of 1.77 µM and a TGI [6] of 42.7 µM. It also gave a GI50 [7] of 1.2 µM, a TGI [7] of 11.9 µM and a GI50 [8] of 0.0225 µM. The TGI [8] was 1.25 µM.

`O=C(N/N=C/c1cc(Cl)ccc1O)c1ccccc1Nc1ccnc(C(F)(F)F)c1` showed a GI50 [1] of 1.43 µM, a TGI [1] of 7.54 µM and a GI50 [2] of 0.472 µM. It also gave a TGI [2] of 9.86 µM, a GI50 [3] of 1.15 µM and a TGI [3] of 10.5 µM. The GI50 [4] was 0.813 µM, the TGI [4] was > 48 µM and the GI50 [5] was 1.08 µM. It also gave a TGI [5] of 25.7 µM, a GI50 [6] of 1.23 µM and a TGI [6] of 10.2 µM. For the same molecule, the GI50 [7] was 0.465 µM, the TGI [7] was 4.29 µM and the GI50 [8] was 0.517 µM. For the same molecule, the TGI [8] was 14.1 µM.

With `C=C(C)C1CCC2=CC(CC3(C)OC3C3=CC(C(=O)OC)=C(C1)O3)OC2=O` (centres undefined) the TGI [1] was > 100 µM, the TGI [2] was > 100 µM and the TGI [4] was > 100 µM. The TGI [5] was > 100 µM, the TGI [6] was > 100 µM and the TGI [7] was > 100 µM. For the same molecule, the TGI [8] was > 100 µM.

`COc1c(-c2ccc3c(c2)OCO3)oc2cc(O)cc(O)c2c1=O` was tested, and the TGI [1] was > 100 µM, the TGI [3] was 53.3 µM and the TGI [4] was > 100 µM. For the same molecule, the TGI [6] was > 100 µM, the TGI [7] was > 100 µM and the TGI [8] was 42.5 µM.
